Results reported in the supplement of paper PMC10307832.

Columns and labels:
Experiment in all cases: relative viability (nuclei count vs DMSO), 5 days (fraction); higher = more cells survive
201T = system: 201T
How it was run: (§1)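 Relative viability is defined as nuclei in treated wells over nuclei in vehicle wells. Duplicate plates were run and medians reported. Lung cancer cell lines in 1536-well plates were dosed by pin tool one day after seeding, with one drug or with a fixed anchor-drug dose plus five library-drug doses (not always all listed) in √10 steps, and nuclei were counted after 5 days.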

A-427 = system: A-427
How it was run: as §1

ABC-1 = system: ABC-1
How it was run: as §1

BEN = system: BEN
How it was run: as §1

CAL-12T = system: CAL-12T
How it was run: as §1

H3255 = system: H3255
How it was run: as §1

LC-2-ad = system: LC-2-ad
How it was run: as §1

LCLC-97TM1 = system: LCLC-97TM1
How it was run: as §1

NCI-H1650 = system: NCI-H1650
How it was run: as §1

NCI-H1651 = system: NCI-H1651
How it was run: as §1

NCI-H1792 = system: NCI-H1792
How it was run: as §1

NCI-H1915 = system: NCI-H1915
How it was run: as §1

NCI-H2023 = system: NCI-H2023
How it was run: as §1

NCI-H2087 = system: NCI-H2087
How it was run: as §1

NCI-H441 = system: NCI-H441
How it was run: as §1

NCI-H460 = system: NCI-H460
How it was run: as §1

NCI-H520 = system: NCI-H520
How it was run: as §1

NCI-H596 = system: NCI-H596
How it was run: as §1

NCI-H650 = system: NCI-H650
How it was run: as §1

NCI-H661 = system: NCI-H661
How it was run: as §1

NCI-H727 = system: NCI-H727
How it was run: as §1

PC-3 [JPC-3] = system: PC-3 [JPC-3]
How it was run: as §1

O=C(O)c1ccc(-c2c[nH]c3ncc(-c4ccccc4)cc23)cc1C1CCCC1 + CC(C)C[C@H](NC(=O)[C@H](Cc1ccccc1)NC(=O)c1cnccn1)B(O)O [Bortezomib] (partner 0.002 µM)
relative viability (201T; first compound 0.04 µM): 1.08 | relative viability (201T; first compound 0.1265 µM): 1.08 | relative viability (201T; first compound 0.4 µM): 1.12 | relative viability (201T; first compound 1.265 µM): 1.02 | relative viability (A-427; first compound 0.04 µM): 0.947 | relative viability (A-427; first compound 0.1265 µM): 0.949 | relative viability (A-427; first compound 0.4 µM): 1.07 | relative viability (A-427; first compound 1.265 µM): 0.849 | relative viability (ABC-1; first compound 0.04 µM): 0.264 | relative viability (ABC-1; first compound 0.1265 µM): 0.299 | relative viability (ABC-1; first compound 0.4 µM): 0.274 | relative viability (ABC-1; first compound 1.265 µM): 0.251 | relative viability (BEN; first compound 0.04 µM): 0.721 | relative viability (BEN; first compound 0.1265 µM): 0.778 | relative viability (BEN; first compound 0.4 µM): 0.907 | relative viability (BEN; first compound 1.265 µM): 0.796 | relative viability (CAL-12T; first compound 0.04 µM): 0.911 | relative viability (CAL-12T; first compound 0.1265 µM): 1.17 | relative viability (CAL-12T; first compound 0.4 µM): 0.883 | relative viability (CAL-12T; first compound 1.265 µM): 0.792 | relative viability (H3255; first compound 0.04 µM): 1.12 | relative viability (H3255; first compound 0.1265 µM): 0.972 | relative viability (H3255; first compound 0.4 µM): 0.833 | relative viability (H3255; first compound 1.265 µM): 0.732 | relative viability (LC-2-ad; first compound 0.04 µM): 1.04 | relative viability (LC-2-ad; first compound 0.1265 µM): 1.1 | relative viability (LC-2-ad; first compound 0.4 µM): 1.02 | relative viability (LC-2-ad; first compound 1.265 µM): 0.779 | relative viability (LCLC-97TM1; first compound 0.04 µM): 0.835 | relative viability (LCLC-97TM1; first compound 0.1265 µM): 1.03 | relative viability (LCLC-97TM1; first compound 0.4 µM): 0.763 | relative viability (LCLC-97TM1; first compound 1.265 µM): 0.403 | relative viability (NCI-H1650; first compound 0.04 µM): 0.185 | relative viability (NCI-H1650; first compound 0.1265 µM): 0.208 | relative viability (NCI-H1650; first compound 0.4 µM): 0.205 | relative viability (NCI-H1650; first compound 1.265 µM): 0.178 | relative viability (NCI-H1651; first compound 0.04 µM): 0.879 | relative viability (NCI-H1651; first compound 0.1265 µM): 0.984 | relative viability (NCI-H1651; first compound 0.4 µM): 0.983 | relative viability (NCI-H1651; first compound 1.265 µM): 0.855 | relative viability (NCI-H1792; first compound 0.04 µM): 0.933 | relative viability (NCI-H1792; first compound 0.1265 µM): 1.13 | relative viability (NCI-H1792; first compound 0.4 µM): 1.04 | relative viability (NCI-H1792; first compound 1.265 µM): 0.912 | relative viability (NCI-H1915; first compound 0.04 µM): 0.957 | relative viability (NCI-H1915; first compound 0.1265 µM): 0.949 | relative viability (NCI-H1915; first compound 0.4 µM): 0.957 | relative viability (NCI-H1915; first compound 1.265 µM): 0.789 | relative viability (NCI-H2023; first compound 0.04 µM): 1.04 | relative viability (NCI-H2023; first compound 0.1265 µM): 1.08 | relative viability (NCI-H2023; first compound 0.4 µM): 1.09 | relative viability (NCI-H2023; first compound 1.265 µM): 0.699 | relative viability (NCI-H2087; first compound 0.04 µM): 0.963 | relative viability (NCI-H2087; first compound 0.1265 µM): 0.902 | relative viability (NCI-H2087; first compound 0.4 µM): 0.715 | relative viability (NCI-H2087; first compound 1.265 µM): 0.565 | relative viability (NCI-H441; first compound 0.04 µM): 0.587 | relative viability (NCI-H441; first compound 0.1265 µM): 0.59 | relative viability (NCI-H441; first compound 0.4 µM): 0.246 | relative viability (NCI-H441; first compound 1.265 µM): 0.289 | relative viability (NCI-H460; first compound 0.04 µM): 1.07 | relative viability (NCI-H460; first compound 0.1265 µM): 1.4 | relative viability (NCI-H460; first compound 0.4 µM): 0.999 | relative viability (NCI-H460; first compound 1.265 µM): 0.939 | relative viability (NCI-H520; first compound 0.04 µM): 0.567 | relative viability (NCI-H520; first compound 0.1265 µM): 0.717 | relative viability (NCI-H520; first compound 0.4 µM): 0.482 | relative viability (NCI-H520; first compound 1.265 µM): 0.327 | relative viability (NCI-H596; first compound 0.04 µM): 0.935 | relative viability (NCI-H596; first compound 0.1265 µM): 0.982 | relative viability (NCI-H596; first compound 0.4 µM): 1.02 | relative viability (NCI-H596; first compound 1.265 µM): 1.06 | relative viability (NCI-H650; first compound 0.04 µM): 0.746 | relative viability (NCI-H650; first compound 0.1265 µM): 0.895 | relative viability (NCI-H650; first compound 0.4 µM): 0.858 | relative viability (NCI-H650; first compound 1.265 µM): 0.5 | relative viability (NCI-H661; first compound 0.04 µM): 0.72 | relative viability (NCI-H661; first compound 0.1265 µM): 0.791 | relative viability (NCI-H661; first compound 0.4 µM): 0.82 | relative viability (NCI-H661; first compound 1.265 µM): 0.935 | relative viability (NCI-H727; first compound 0.04 µM): 0.788 | relative viability (NCI-H727; first compound 0.1265 µM): 0.99 | relative viability (NCI-H727; first compound 0.4 µM): 0.906 | relative viability (NCI-H727; first compound 1.265 µM): 0.783 | relative viability (PC-3 [JPC-3]; first compound 0.04 µM): 0.832 | relative viability (PC-3 [JPC-3]; first compound 0.1265 µM): 0.921 | relative viability (PC-3 [JPC-3]; first compound 0.4 µM): 0.9 | relative viability (PC-3 [JPC-3]; first compound 1.265 µM): 0.759
